Laboratory results published in patent US8648105B2, “Diarylthiohydantoin compounds” (The Regents of the University of California, priority 2006, dated 2014).
Entries after “also recorded” stand apart in the source; their conditions may differ.

What was measured:
[1] = system: AR-overexpressed LNCaP xenograft tumors; test: AR-overexpressed LNCaP xenograft model in castrated SCID mice; assay type: in vivo
Procedure: FIG. 7 is a graph of tumor size. AR overexpressing LNCaP cells were injected in the flanks of castrated SCID mice, subcutaneously. When tumors reached about 100 cubic mm, they were randomized into five groups. Each group had nine animals. […]. The tumors were measured three-dimensionally, width, length and depth, using a caliper.
FIG. 8 depicts experimental results of tumor size. At day 18, the animals were imaged via an optical CCD camera, 3 hours after last dose of treatment. A ROI was drawn over the tumor for luciferase activity measurement in photon/second. The right panels is a representation of the ROIs measurements.
Compounds of the invention are used to examine if the diaryihydantoin derivatives have in vivo effects on hormone refractory prostate cancer. First we examine this compound on xenograft tumors established from AR-overexpressed LNCaP cells. Engineered cells in Matrigel (Collaborative Biomedical) are injected subcutaneously into the flanks of the castrated male SCID mice. Tumor size is measured weekly in three dimensions using calipers. After xenograft tumors established (tumor size at least 40 mm^3), mice with tumors are randomized and treated with different doses of compounds orally once daily. The inhibitory effect on growth of AR-overexpressed LNCaP xenograft model is studied as follows. Mice with established LN-AR xenograft tumors are randomized and treated with indicated compounds orally once daily. Tumor size are measured by caliber.
All animal experiments were performed in compliance with the guidelines of the Animal Research Committee of the University of California at Los Angeles. Animals were bought from Taconic and maintained in a laminar flow tower in a defined flora colony. LNCaP-AR and LNCaP-vector cells were maintained in RPMI medium supplemented with 10% FBS. 10^6 cells in 100 μl of 1:1 Matrigel to RPMI medium were injected subcutaneously into the flanks of intact or castrated male SCID mice. Tumor size was measured weekly in three dimensions (length×width×depth) using calipers. Mice were randomized to treatment groups when tumor size reached approximately 100 mm^3. Drugs were given orally every day at 10 mg/kg and 50 mg/kg. To obtain pharmacodynamic readout, the animals were imaged via an optical CCD camera, 3 hours after last dose of the treatment. A ROI is drawn over the tumor for luciferase activity measurement in photon/second. The right panels were a representation of the ROIs measurements. […]

LogP = assay type: physicochemical
tumor = test: Dose regimens of NC53 on tumor volume and luciferase photon emission (FIGS. 17, 18); assay type: in vivo; conditions: for tumor size: FIG. 17
Source text: FIG. 17 illustrates that under treatment with vehicle solution, tumors continued to increase in size.

Q: For `CNC(=O)c1ccc(N2C(=S)N(c3ccc(C#N)c(C(F)(F)F)c3)C(=O)C23CCC3)cc1F` [NC53, N-methyl-4-[7-(4-cyano-3-trifluoromethylphenyl)-8-oxo-6-thioxo-5,7-diaza-spiro[3.4]oct-5-yl]-2-fluorobenzamide], which “photon emission associated with luciferase activity” value ([1]; FIG. 8, day 18, relative to vehicle) is on record?
A: The value was “photon emission decreased”.

Q: What about the “tumor growth / tumor volume” value ([1]; oral once daily, FIG. 7: 10 or 50 mg/kg, 18 days) of the same compound?
A: Its value is “effective to prevent tumor growth and even to cause tumor shrinkage, and was distinctly more effective than bicalutamide; also recorded: tumors decreased in size”.

Q: And the logP (LogP)?
A: Its logP is 3.2.

Q: What about the tumor size (tumor; 1 mg per kg body weight per day) of the same compound?
A: The tumor size was “the rate of tumor increase decreased, and the size of the tumor appeared to be stabilizing after about 17 days”.

Q: And the tumor size (tumor; 10 mg per kg body weight per day)?
A: The tumor size was “tumor size decreased with time”.

Q: What about the “photon emission associated with luciferase activity” value (tumor; 10 mg per kg body weight per day, day 17 vs day 0, FIG. 18) of the same compound?
A: The value was “photon emission associated with luciferase activity decreased”.
